In paper PMC8903829 (eLife, 2022):

Columns and labels:
[1] = Bioanalytical assessment of plasma and brain concentrations after rat DC-MES assay; assay type: in vivo; details: rat, oral, Rat DC-MES
Scn8a^N1768D/+ mice = test: Modified 6 Hz psychomotor seizure assay; assay type: in vivo, mouse
Protocol: Phenytoin was formulated in physiologic saline and was administered intraperitoneally (i.p.) using a 25-gauge needle at a dose volume of 10 mL/kg. All compounds were administered 2 hr prior to electrical seizure induction for all seizure models employed in this study.
Scn8a^N1768D/+heterozygous mice were tested at 5 weeks of age (p35). The modified 6 Hz seizure assay in Scn8a^N1768D/+heterozygous mice was adapted from the traditional 6 Hz assay psychomotor seizure assay to provide a measure of in vivo on target (NaV1.6 mediated) efficacy ([Barton et al., 2001]). The modified assay used a low frequency (6 Hz) but long-duration stimulation (3 s) to induce seizures. […] An electroshock (6 Hz, 12 mA) was delivered for 3 s (at 0.3-ms pulse interval) by corneal electrodes (Electro Convulsive Therapy Unit 57,800 from Ugo Basile). Immediately prior to the electroshock, the animals’ eyes were anesthetized with a drop of Alcaine (0.5% proparacaine hydrochloride).
An animal was considered protected in the assay upon prevention of GTC with hindlimb extension and was then scored ‘0’. An animal displaying GTC with hindlimb extension was considered not protected and is then scored ‘1’. The experimenter scoring the seizure behavior was blinded to the treatment.

Sprague Dawley rats = test: Observation of potential adverse behavior (behavioral signs) in the rat DC-MES studies; assay type: in vivo; details: rat
Protocol: Animals were observed by the scientist(s) responsible for dosing for the first 30 min after dosing for and again at the time of assay (2 hr post dose) for signs of abnormal behavior.

[2] = Bioanalytical assessment of plasma and brain concentrations after 6 Hz assay; assay type: in vivo, mouse; details: mouse, oral, SCN8A mouse 6HZ
Protocol: Approximately 0.5 mL of blood was collected from each mouse at the end of the assay via cardiac puncture under deep anesthesia. The blood samples were collected in a syringe and transferred to tubes containing EDTA. Blood was stored at 4 °C until centrifuged within 30 min of collection. Plasma was harvested and placed on dry ice and stored in a freezer set to maintain a temperature of –70°C to –80°C until analysis. Brains were harvested immediately after blood collection and placed on dry ice prior to storage in a freezer set to maintain a temperature of –70°C to –80°C until analysis.
Extraction of plasma samples was carried out by protein precipitation using acetonitrile. Plasma samples (50 µL) were mixed with 50 µL of internal standard (IS) solution in water followed by addition of 10 µL of concentrated ortho-phosphoric acid and 200 µL of acetonitrile. Samples were vortexed for 30 seconds, centrifuged at 13,000 rpm for 20 min, decanted in to a 96-well plate, and further centrifuged at 4000 rpm for 20 min. The samples were analyzed by UHPLC-ESI-MS/MS as described below.
Prior to extraction, pre-weighed whole brains were homogenized in 1:1 acetonitrile/water (v/v) (4 mL per mouse brain) using an IKA T18 ULTRA-TURRAX Homogenizer at the setting of 4 for approximately 2 min. The homogenate was centrifuged at 13,000 rpm for 20 min and 50 µL of the supernatant were treated exactly as described above for plasma samples. […]
Samples were analyzed by UHPLC-ESI MS/MS using a TQ-5500 Sciex triple quadrupole mass spectrometer equipped with a Shimadzu Nexera UHPLC pump and auto-sampler system using an ACE C18 PFP, 2.50 × 50 mm, 1.7 µm particle size column and gradient elution consisting of solvent A (0.1% formic acid in water) and solvent B (0.1% formic acid in acetonitrile) starting at 20% B from 0 min to 0.4 min and then increased to 100% B from 0.4 min to 0.6 min. At 2.0 min, the mobile phase composition was switched back to […] for 1 min. The flow rate used throughout the experiment was […]. […] The UHPLC-ESI MS/MS system was controlled by Analyst 1.6.
Sample concentrations were determined using a linear calibration function, weighted 1 /X, generated by the regression of analyte to IS peak area ratios in the standard samples to their respective concentrations. Acceptance criteria for the analytical run required that the back calculated values of the standards and the QC samples fell within ±20% of their nominal values, except for the lowest standard or lower limit of quantitation (LLOQ), for which the acceptance criterion was ±25%. At least 6 out of 12 standard points had to show back-calculated values within ±20% of their nominal concentrations for the calibration to be accepted. At least three QC samples, one at each level, had to show back-calculated values within ±20% of their nominal concentrations for the whole sample batch to be valid.

NC(=O)N1c2ccccc2C=Cc2ccccc21 [carbamazepine, Carbamazepine, reference compound]
concentration at 2 h ([1]; brain, 3 mg/kg, Study18058, 3 mg/kg, read-out: Mean [Brain]): 0.979 µM | concentration at 2 h ([1]; brain, 10 mg/kg, Study18058, 10 mg/kg, read-out: Mean [Brain]): 4.24 µM | concentration at 2 h ([1]; brain, 20 mg/kg, Study18058, 20 mg/kg, read-out: Mean [Brain]): 11 µM | concentration at 2 h ([1]; brain, 30 mg/kg, Study18068, 30 mg/kg, read-out: Mean [Brain]): 30.4 µM | concentration at 2 h ([1]; brain, 100 mg/kg, Study18068, 100 mg/kg, read-out: Mean [Brain]): 55.5 µM | concentration at 2 h ([1]; brain, 300 mg/kg, Study18085, 300 mg/kg, read-out: Mean [Brain]): 79.9 µM | concentration at 2 h ([1]; plasma, 3 mg/kg, Study18058, 3 mg/kg, read-out: Mean [Palsma]): 0.966 µM | concentration at 2 h ([1]; plasma, 10 mg/kg, Study18058, 10 mg/kg, read-out: Mean [Palsma]): 4.27 µM | concentration at 2 h ([1]; plasma, 20 mg/kg, Study18058, 20 mg/kg, read-out: Mean [Palsma]): 11.3 µM | concentration at 2 h ([1]; plasma, 30 mg/kg, Study18068, 30 mg/kg, read-out: Mean [Palsma]): 24 µM | concentration at 2 h ([1]; plasma, 100 mg/kg, Study18068, 100 mg/kg, read-out: Mean [Palsma]): 42.7 µM | concentration at 2 h ([1]; plasma, 300 mg/kg, Study18085, 300 mg/kg, read-out: Mean [Palsma]): 65.9 µM | EC50 (Scn8a^N1768D/+ mice; Mus musculus, Scn8a^N1768D/+ 6 Hz model, 2 hr post dose (oral; phenytoin i.p.), read-out: brain EC50): 9.4 µM | SCN8A mouse 6HZ Fraction of animals seizing (Scn8a^N1768D/+ mice; Study15064, 3 mg/kg): 0.5 | SCN8A mouse 6HZ Fraction of animals seizing (Scn8a^N1768D/+ mice; Study15064, 10 mg/kg): 0.75 | SCN8A mouse 6HZ Fraction of animals seizing (Scn8a^N1768D/+ mice; Study16152, 3 mg/kg): 0.75 | SCN8A mouse 6HZ Fraction of animals seizing (Scn8a^N1768D/+ mice; Study16152, 10 mg/kg): 0.667 | SCN8A mouse 6HZ Fraction of animals seizing (Scn8a^N1768D/+ mice; Study16152, 30 mg/kg): 0 | SCN8A mouse 6HZ Fraction of animals seizing (Scn8a^N1768D/+ mice; Study16162, 3 mg/kg): 0.8 | SCN8A mouse 6HZ Fraction of animals seizing (Scn8a^N1768D/+ mice; Study16162, 10 mg/kg): 0.4 | SCN8A mouse 6HZ Fraction of animals seizing (Scn8a^N1768D/+ mice; Study16162, 100 mg/kg): 0 | minimal plasma concentration provoking behavioral signs (BSC) (Sprague Dawley rats): 110 µM | concentration at 2 h ([2]; Scn8a N1768D/+, brain, 3 mg/kg, Study15064, 3 mg/kg, read-out: Mean [Brain]): 0.943 µM | concentration at 2 h ([2]; Scn8a N1768D/+, brain, 3 mg/kg, Study16152, 3 mg/kg, read-out: Mean [Brain]): 2.7 µM | concentration at 2 h ([2]; Scn8a N1768D/+, brain, 3 mg/kg, Study16162, 3 mg/kg, read-out: Mean [Brain]): 4.89 µM | concentration at 2 h ([2]; Scn8a N1768D/+, brain, 10 mg/kg, Study15064, 10 mg/kg, read-out: Mean [Brain]): 2.24 µM | concentration at 2 h ([2]; Scn8a N1768D/+, brain, 10 mg/kg, Study16152, 10 mg/kg, read-out: Mean [Brain]): 11.4 µM | concentration at 2 h ([2]; Scn8a N1768D/+, brain, 10 mg/kg, Study16162, 10 mg/kg, read-out: Mean [Brain]): 15.7 µM | concentration at 2 h ([2]; Scn8a N1768D/+, brain, 30 mg/kg, Study16152, 30 mg/kg, read-out: Mean [Brain]): 40.7 µM | concentration at 2 h ([2]; Scn8a N1768D/+, brain, 100 mg/kg, Study16162, 100 mg/kg, read-out: Mean [Brain]): 130 µM | concentration at 2 h ([2]; Scn8a N1768D/+, plasma, 10 mg/kg, Study16162, 10 mg/kg, read-out: Mean [Palsma]): 20.7 µM | concentration at 2 h ([2]; Scn8a N1768D/+, plasma, 100 mg/kg, Study16162, 100 mg/kg, read-out: Mean [Palsma]): 154 µM | concentration at 2 h ([2]; Scn8a^N1768D/+, plasma, 3 mg/kg, Study15064, 3 mg/kg, read-out: Mean [Palsma]): 1.14 µM | concentration at 2 h ([2]; Scn8a^N1768D/+, plasma, 3 mg/kg, Study16152, 3 mg/kg, read-out: Mean [Palsma]): 4.75 µM | concentration at 2 h ([2]; Scn8a^N1768D/+, plasma, 3 mg/kg, Study16162, 3 mg/kg, read-out: Mean [Palsma]): 7.46 µM | concentration at 2 h ([2]; Scn8a^N1768D/+, plasma, 10 mg/kg, Study15064, 10 mg/kg, read-out: Mean [Palsma]): 5.96 µM | concentration at 2 h ([2]; Scn8a^N1768D/+, plasma, 10 mg/kg, Study16152, 10 mg/kg, read-out: Mean [Palsma]): 15.4 µM | concentration at 2 h ([2]; Scn8a^N1768D/+, plasma, 30 mg/kg, Study16152, 30 mg/kg, read-out: Mean [Palsma]): 48.7 µM
